{"source": "patent US9573911B2", "about": "“Diphosphate mimetics and uses thereof” (President and Fellows of Harvard College, priority 2011, dated 2017)", "experiment_in_all_cases": "Kinase profiling, Invitrogen Z'-LYTE", "type_in_all_cases": "biochemical", "conditions_in_all_cases": "Table 2", "key": {"RPS6KA2 (RSK3)": {"molecular_target": "T1, RPS6KA2 (RSK3) (Homo sapiens, UniProt Q15349)", "T1 construct": "purchased Invitrogen", "method": "(§1) Kinase profiling was conducted using Invitrogen Z'-LYTE screening protocol and assay conditions found at www.invitrogen.com. Compound (2) inhibited PLK1 completely at 5 μM."}, "MST1R (RON)": {"molecular_target": "T2, MST1R (RON) (Homo sapiens, UniProt Q04912)", "T2 construct": "purchased Invitrogen", "T2 sequence (Q04912 25-1400)": "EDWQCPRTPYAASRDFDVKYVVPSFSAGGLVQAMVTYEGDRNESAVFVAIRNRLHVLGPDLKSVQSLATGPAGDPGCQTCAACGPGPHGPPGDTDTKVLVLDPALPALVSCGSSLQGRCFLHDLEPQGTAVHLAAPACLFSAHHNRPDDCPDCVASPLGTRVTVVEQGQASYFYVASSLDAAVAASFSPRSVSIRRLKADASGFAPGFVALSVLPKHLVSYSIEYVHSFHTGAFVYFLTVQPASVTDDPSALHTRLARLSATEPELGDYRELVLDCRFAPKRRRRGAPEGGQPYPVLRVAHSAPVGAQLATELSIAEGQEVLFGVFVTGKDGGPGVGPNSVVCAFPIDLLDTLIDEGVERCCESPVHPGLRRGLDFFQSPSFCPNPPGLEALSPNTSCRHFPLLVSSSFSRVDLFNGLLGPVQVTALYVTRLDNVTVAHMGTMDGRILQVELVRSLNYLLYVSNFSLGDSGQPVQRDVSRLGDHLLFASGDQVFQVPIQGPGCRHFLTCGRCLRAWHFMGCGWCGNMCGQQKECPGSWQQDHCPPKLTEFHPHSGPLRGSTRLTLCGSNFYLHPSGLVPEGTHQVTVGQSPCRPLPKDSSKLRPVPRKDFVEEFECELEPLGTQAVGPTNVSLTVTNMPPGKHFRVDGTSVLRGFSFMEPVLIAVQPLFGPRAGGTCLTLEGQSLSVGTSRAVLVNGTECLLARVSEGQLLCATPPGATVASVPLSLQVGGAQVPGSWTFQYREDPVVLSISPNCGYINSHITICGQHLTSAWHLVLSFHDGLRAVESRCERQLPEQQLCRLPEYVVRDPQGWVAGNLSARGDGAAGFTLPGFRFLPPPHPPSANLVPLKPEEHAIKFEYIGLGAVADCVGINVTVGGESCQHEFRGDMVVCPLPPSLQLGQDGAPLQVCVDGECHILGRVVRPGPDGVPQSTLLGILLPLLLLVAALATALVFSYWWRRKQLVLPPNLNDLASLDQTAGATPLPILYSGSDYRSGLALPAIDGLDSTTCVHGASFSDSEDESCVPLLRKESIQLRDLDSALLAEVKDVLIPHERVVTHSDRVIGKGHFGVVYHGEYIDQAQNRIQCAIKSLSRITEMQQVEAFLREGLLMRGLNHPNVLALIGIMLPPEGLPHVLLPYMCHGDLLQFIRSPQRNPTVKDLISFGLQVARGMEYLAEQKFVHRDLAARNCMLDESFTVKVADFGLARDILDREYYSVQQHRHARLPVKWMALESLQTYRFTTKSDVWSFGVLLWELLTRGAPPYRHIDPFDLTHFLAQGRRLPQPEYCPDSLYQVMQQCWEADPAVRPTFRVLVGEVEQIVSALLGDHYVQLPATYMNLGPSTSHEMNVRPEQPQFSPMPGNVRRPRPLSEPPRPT", "method": "as §1"}, "MAPK12 (p38 gamma)": {"molecular_target": "T3, MAPK12 (p38 gamma) (Homo sapiens, UniProt P53778)", "T3 construct": "purchased Invitrogen", "T3 sequence (P53778 1-367)": "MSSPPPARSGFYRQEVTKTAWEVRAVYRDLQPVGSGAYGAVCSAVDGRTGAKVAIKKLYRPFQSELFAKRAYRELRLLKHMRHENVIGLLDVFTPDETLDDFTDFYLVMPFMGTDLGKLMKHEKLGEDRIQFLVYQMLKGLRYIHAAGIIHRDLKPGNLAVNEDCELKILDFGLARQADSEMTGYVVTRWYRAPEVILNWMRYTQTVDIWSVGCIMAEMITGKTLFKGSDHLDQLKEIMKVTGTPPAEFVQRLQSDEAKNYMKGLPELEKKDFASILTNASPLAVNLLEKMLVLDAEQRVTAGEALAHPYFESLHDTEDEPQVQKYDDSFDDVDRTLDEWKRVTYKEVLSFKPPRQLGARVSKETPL", "method": "as §1"}, "MET M1250T": {"molecular_target": "T4, MET M1250T (Homo sapiens, UniProt P08581, M1250T)", "T4 construct": "purchased Invitrogen", "T4 sequence (P08581 25-1390 M1250T)": "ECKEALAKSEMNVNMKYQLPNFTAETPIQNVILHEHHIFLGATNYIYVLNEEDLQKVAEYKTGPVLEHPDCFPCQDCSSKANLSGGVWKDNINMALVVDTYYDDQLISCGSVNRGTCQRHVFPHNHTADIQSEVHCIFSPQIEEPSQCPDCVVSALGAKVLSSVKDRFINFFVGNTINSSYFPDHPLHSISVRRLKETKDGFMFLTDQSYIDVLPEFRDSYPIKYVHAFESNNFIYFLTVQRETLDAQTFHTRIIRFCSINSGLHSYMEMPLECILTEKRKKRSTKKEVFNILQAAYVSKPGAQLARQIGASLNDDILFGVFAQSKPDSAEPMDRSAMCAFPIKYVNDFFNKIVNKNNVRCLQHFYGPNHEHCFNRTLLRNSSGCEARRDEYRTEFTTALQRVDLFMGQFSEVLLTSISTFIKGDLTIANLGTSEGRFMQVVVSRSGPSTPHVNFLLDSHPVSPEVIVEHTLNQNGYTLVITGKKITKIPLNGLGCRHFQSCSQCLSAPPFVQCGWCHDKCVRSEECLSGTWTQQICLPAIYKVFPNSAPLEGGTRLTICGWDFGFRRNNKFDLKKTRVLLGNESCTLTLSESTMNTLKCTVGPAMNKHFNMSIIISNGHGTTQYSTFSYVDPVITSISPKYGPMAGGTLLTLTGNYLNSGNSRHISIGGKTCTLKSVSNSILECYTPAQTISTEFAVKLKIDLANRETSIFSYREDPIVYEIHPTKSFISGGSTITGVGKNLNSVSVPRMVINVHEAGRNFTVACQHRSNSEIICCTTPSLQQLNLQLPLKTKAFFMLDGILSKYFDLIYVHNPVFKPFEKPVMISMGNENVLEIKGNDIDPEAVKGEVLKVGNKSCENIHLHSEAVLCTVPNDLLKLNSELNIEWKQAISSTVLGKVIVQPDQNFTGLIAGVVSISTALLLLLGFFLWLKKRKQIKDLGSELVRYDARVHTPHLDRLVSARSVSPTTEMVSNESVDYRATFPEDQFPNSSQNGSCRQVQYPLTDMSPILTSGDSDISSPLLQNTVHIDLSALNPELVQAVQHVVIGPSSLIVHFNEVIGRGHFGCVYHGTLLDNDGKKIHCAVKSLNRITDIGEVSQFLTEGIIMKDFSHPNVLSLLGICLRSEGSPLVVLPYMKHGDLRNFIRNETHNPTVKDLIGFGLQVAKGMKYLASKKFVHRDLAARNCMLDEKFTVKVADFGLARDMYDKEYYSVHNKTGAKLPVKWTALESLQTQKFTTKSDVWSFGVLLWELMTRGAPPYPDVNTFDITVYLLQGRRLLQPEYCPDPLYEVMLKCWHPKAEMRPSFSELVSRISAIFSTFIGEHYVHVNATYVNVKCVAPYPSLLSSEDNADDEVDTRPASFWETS", "method": "as §1"}, "GRK4": {"molecular_target": "T5, GRK4 (Homo sapiens, UniProt P32298)", "T5 construct": "purchased Invitrogen", "method": "as §1"}, "EEF2K": {"molecular_target": "T6, EEF2K (Homo sapiens, UniProt O00418)", "T6 construct": "purchased Invitrogen", "method": "as §1"}, "FLT3 D835Y": {"molecular_target": "T7, FLT3 D835Y (Homo sapiens, UniProt P36888, D835Y)", "T7 construct": "purchased Invitrogen", "T7 sequence (P36888 27-993 D835Y)": "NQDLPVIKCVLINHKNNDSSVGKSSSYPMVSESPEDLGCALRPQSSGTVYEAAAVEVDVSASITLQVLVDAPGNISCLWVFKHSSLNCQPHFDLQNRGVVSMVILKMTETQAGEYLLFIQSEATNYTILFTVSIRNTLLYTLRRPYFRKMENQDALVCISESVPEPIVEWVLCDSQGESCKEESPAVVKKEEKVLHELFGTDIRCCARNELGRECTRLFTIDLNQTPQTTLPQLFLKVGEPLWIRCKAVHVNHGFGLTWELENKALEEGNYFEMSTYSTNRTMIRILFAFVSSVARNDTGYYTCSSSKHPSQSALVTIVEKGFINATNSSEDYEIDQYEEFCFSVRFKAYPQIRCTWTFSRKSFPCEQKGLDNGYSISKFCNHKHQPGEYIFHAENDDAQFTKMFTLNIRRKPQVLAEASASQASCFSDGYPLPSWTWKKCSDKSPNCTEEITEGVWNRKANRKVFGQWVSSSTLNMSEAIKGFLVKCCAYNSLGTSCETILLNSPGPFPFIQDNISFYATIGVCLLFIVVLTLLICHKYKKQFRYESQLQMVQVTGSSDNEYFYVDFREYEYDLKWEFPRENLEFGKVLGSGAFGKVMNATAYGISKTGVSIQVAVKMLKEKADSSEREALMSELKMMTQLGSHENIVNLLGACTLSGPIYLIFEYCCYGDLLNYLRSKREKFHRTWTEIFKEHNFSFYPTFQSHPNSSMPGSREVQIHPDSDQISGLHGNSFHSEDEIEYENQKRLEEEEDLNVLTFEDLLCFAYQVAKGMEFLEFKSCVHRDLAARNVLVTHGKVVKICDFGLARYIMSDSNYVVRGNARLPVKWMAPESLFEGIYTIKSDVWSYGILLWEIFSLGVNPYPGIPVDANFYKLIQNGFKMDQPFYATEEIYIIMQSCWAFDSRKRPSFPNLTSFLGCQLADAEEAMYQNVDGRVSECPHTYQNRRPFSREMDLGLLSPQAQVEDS", "method": "as §1"}, "ABL1": {"molecular_target": "T8, ABL1 (Homo sapiens, UniProt P00519)", "T8 construct": "purchased Invitrogen", "method": "as §1"}, "MARK2": {"molecular_target": "T9, MARK2 (Homo sapiens, UniProt Q7KZI7)", "T9 construct": "purchased Invitrogen", "method": "as §1"}, "SGKL (SGK3)": {"molecular_target": "T10, SGKL (SGK3) (Homo sapiens, UniProt Q96BR1)", "T10 construct": "purchased Invitrogen", "T10 sequence (Q96BR1 1-496)": "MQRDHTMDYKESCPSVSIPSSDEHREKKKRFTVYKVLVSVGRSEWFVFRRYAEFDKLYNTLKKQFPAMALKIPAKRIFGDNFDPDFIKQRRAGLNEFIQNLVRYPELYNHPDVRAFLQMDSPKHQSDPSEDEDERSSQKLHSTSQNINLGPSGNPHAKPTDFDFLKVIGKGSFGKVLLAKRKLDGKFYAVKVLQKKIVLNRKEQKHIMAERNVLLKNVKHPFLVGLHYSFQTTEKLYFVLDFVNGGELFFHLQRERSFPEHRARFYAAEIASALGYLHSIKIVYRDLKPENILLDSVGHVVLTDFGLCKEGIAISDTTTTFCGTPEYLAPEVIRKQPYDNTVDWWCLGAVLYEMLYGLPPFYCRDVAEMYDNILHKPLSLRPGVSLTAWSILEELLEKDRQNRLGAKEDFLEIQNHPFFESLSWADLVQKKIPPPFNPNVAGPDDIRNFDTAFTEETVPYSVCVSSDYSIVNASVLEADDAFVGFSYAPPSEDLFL", "method": "as §1"}, "HIPK2": {"molecular_target": "T11, HIPK2 (Homo sapiens, UniProt Q9H2X6)", "T11 construct": "purchased Invitrogen", "method": "as §1"}, "NEK6": {"molecular_target": "T12, NEK6 (Homo sapiens, UniProt Q9HC98)", "T12 construct": "purchased Invitrogen", "method": "as §1"}}, "data": [{"molecule": "COc1ccc(OC(=O)n2c(=O)oc3cc(C(C)=O)ccc32)cc1", "note": "[Compound 2]", "values": [{"measurement": "% Inhibition Point 1", "setting": "RPS6KA2 (RSK3)", "value": "−266", "unit": "%"}, {"measurement": "% Inhibition Point 2", "setting": "RPS6KA2 (RSK3)", "value": "−267", "unit": "%"}, {"measurement": "% Inhibition mean", "setting": "RPS6KA2 (RSK3)", "value": "−267", "unit": "%"}, {"measurement": "% Inhibition Point 1", "setting": "MST1R (RON)", "value": "−258", "unit": "%"}, {"measurement": "% Inhibition Point 2", "setting": "MST1R (RON)", "value": "−245", "unit": "%"}, {"measurement": "% Inhibition mean", "setting": "MST1R (RON)", "value": "−252", "unit": "%"}, {"measurement": "% Inhibition Point 1", "setting": "MAPK12 (p38 gamma)", "value": "−203", "unit": "%"}, {"measurement": "% Inhibition Point 2", "setting": "MAPK12 (p38 gamma)", "value": "−203", "unit": "%"}, {"measurement": "% Inhibition mean", "setting": "MAPK12 (p38 gamma)", "value": "−203", "unit": "%"}, {"measurement": "% Inhibition Point 1", "setting": "MET M1250T", "value": "−113", "unit": "%"}, {"measurement": "% Inhibition Point 2", "setting": "MET M1250T", "value": "−143", "unit": "%"}, {"measurement": "% Inhibition mean", "setting": "MET M1250T", "value": "−128", "unit": "%"}, {"measurement": "% Inhibition Point 1", "setting": "GRK4", "value": 77, "unit": "%"}, {"measurement": "% Inhibition Point 2", "setting": "GRK4", "value": 76, "unit": "%"}, {"measurement": "% Inhibition mean", "setting": "GRK4", "value": 76, "unit": "%"}, {"measurement": "% Inhibition Point 1", "setting": "EEF2K", "value": "−64", "unit": "%"}, {"measurement": "% Inhibition Point 2", "setting": "EEF2K", "value": "−61", "unit": "%"}, {"measurement": "% Inhibition mean", "setting": "EEF2K", "value": "−63", "unit": "%"}, {"measurement": "% Inhibition Point 1", "setting": "FLT3 D835Y", "value": "−41", "unit": "%"}, {"measurement": "% Inhibition Point 2", "setting": "FLT3 D835Y", "value": "−43", "unit": "%"}, {"measurement": "% Inhibition mean", "setting": "FLT3 D835Y", "value": "−42", "unit": "%"}, {"measurement": "% Inhibition Point 1", "setting": "ABL1", "value": "−147", "unit": "%"}, {"measurement": "% Inhibition Point 2", "setting": "ABL1", "value": "−234", "unit": "%"}, {"measurement": "% Inhibition mean", "setting": "ABL1", "value": "−190", "unit": "%"}, {"measurement": "% Inhibition Point 1", "setting": "MARK2", "value": "−172", "unit": "%"}, {"measurement": "% Inhibition Point 2", "setting": "MARK2", "value": "−157", "unit": "%"}, {"measurement": "% Inhibition mean", "setting": "MARK2", "value": "−164", "unit": "%"}, {"measurement": "% Inhibition Point 1", "setting": "SGKL (SGK3)", "value": "−140", "unit": "%"}, {"measurement": "% Inhibition Point 2", "setting": "SGKL (SGK3)", "value": "−150", "unit": "%"}, {"measurement": "% Inhibition mean", "setting": "SGKL (SGK3)", "value": "−145", "unit": "%"}, {"measurement": "% Inhibition Point 1", "setting": "HIPK2", "value": "−96", "unit": "%"}, {"measurement": "% Inhibition Point 2", "setting": "HIPK2", "value": "−90", "unit": "%"}, {"measurement": "% Inhibition mean", "setting": "HIPK2", "value": "−93", "unit": "%"}, {"measurement": "% Inhibition Point 1", "setting": "NEK6", "value": "−490", "unit": "%"}, {"measurement": "% Inhibition Point 2", "setting": "NEK6", "value": "−457", "unit": "%"}, {"measurement": "% Inhibition mean", "setting": "NEK6", "value": "−474", "unit": "%"}]}]}
